Converted amounts (≈) assume the structure as drawn.
Assays:
Anesthetized Dogs = test: Measurement of Arterial Blood Pressure in Anesthetized Dogs; assay type: in vivo, Mongrel dogs; conditions: for blood pressure / ratio of blood pressure change as compared to the normal blood pressure: anesthetized dogs
Protocol: [A] Measurement of Arterial Blood Pressure in Anesthetized Dogs
Mongrel dogs weighing 11.8 to 19.0 kg were used. The dogs were anesthetized by intraperitoneal injection of pentobarbital sodium (35 mg/kg). The blood pressure was measured with a pressure transducer in the left femoral artery. The values of blood pressure were recorded on a polygraph. The right femoral vein was cannulated and the cumulative dose (0.01, 0.032, 0.1, 0.32, 1, 3.2, 10, 32 and 100 μg/kg) of the solution of Test Compounds dissolved in a mixture of polyethylene glycol, ethanol and water was intravenously injected in a volume of 0.2 ml/kg.
The values of blood pressure were shown in the following table with an expression of mm/Hg.
note: The values of the parentheses mean the ratio of blood pressure
change (%) in each dose as compared to the normal blood pressure.

[1] = background statement; cited from earlier work
[2] = orally administered; background statement; cited from earlier work
[3] = Solubility Test (in water at ambient temperature); assay type: physicochemical; conditions: for solubility: in water, ambient temperature
Protocol: [B] Solubility Test Test Method Solubility of Test Compound A and Nilvadipine in water was measured at ambient temperature.

[4] = cumulative i.v. dose 0.32 μg/kg
[5] = as compared to its optically inactive racemate, Nilvadipine

| Compound | blood pressure (Anesthetized Dogs; [4]) [mm/Hg] | ratio of blood pressure change as compared to the normal blood pressure (Anesthetized Dogs; [4]) | blood pressure (Anesthetized Dogs; cumulative i.v. dose 1 μg/kg) [mm/Hg] | ratio of blood pressure change as compared to the normal blood pressure (Anesthetized Dogs; cumulative i.v. dose 1 μg/kg) | blood pressure (Anesthetized Dogs; cumulative i.v. dose 3.2 μg/kg) [mm/Hg] | ratio of blood pressure change as compared to the normal blood pressure (Anesthetized Dogs; cumulative i.v. dose 3.2 μg/kg) [%] | blood pressure (Anesthetized Dogs; cumulative i.v. dose 10 μg/kg) [mm/Hg] | ratio of blood pressure change as compared to the normal blood pressure (Anesthetized Dogs; cumulative i.v. dose 10 μg/kg) [%] | blood pressure (Anesthetized Dogs; cumulative i.v. dose 32 μg/kg) [mm/Hg] | ratio of blood pressure change as compared to the normal blood pressure (Anesthetized Dogs; cumulative i.v. dose 32 μg/kg) [%] | blood pressure (Anesthetized Dogs; cumulative i.v. dose 100 μg/kg) [mm/Hg] | ratio of blood pressure change as compared to the normal blood pressure (Anesthetized Dogs; cumulative i.v. dose 100 μg/kg) [%] | solubility in water (in words) [1] | absorbability of said drug into a body (in words) [2] | solubility [3] [µg/mL] | hypotensive and vasodilating activities (in words) (Anesthetized Dogs; [5]) | solubility (in words) [3, 5] |
| --- | --- | --- | --- | --- | --- | --- | --- | --- | --- | --- | --- | --- | --- | --- | --- | --- | --- |
| COC(=O)C1=C(C#N)NC(C)=C(C(=O)OC(C)C)C1c1cccc([N+](=O)[O-])c1 (racemic) [Nilvadipine, (±)-5-isopropyl 3-methyl 2-cyano-6-methyl-4-(3-nitrophenyl)-1,4-dihydropyridine-3,5-dicarboxylate] | 104 ± 6 | +6 ± 1% | 103 ± 5 | +5 ± 1% | 100 ± 4 | -3 ± 2 | 90 ± 3 | -7 ± 5 | 83 ± 5 | -15 ± 6 | 65 ± 6 | -34 ± 6 | only slightly soluble in water | not so good | 0.6 (≈ 1.56 µM) |  |  |
| COC(=O)C1=C(C#N)NC(C)=C(C(=O)OC(C)C)C1c1cccc([N+](=O)[O-])c1 (single isomer, unassigned; (+)) [(+)-5-isopropyl 3-methyl 2-cyano-6-methyl-4-(3-nitrophenyl)-1,4-dihydropyridine-3,5-dicarboxylate] |  |  |  |  |  |  |  |  |  |  |  |  |  |  |  | much stronger and more lasting hypotensive and vasodilating activities | higher solubility |
| COC(=O)C1=C(C#N)NC(C)=C(C(=O)OC(C)C)C1c1cccc([N+](=O)[O-])c1 (single isomer, unassigned; (+)) [Test Compound A, (+)-5-isopropyl 3-methyl 2-cyano-6-methyl-4-(3-nitrophenyl)-1,4-dihydropyridine-3,5-dicarboxylate] | 117 ± 6 | -2 ± 1% | 114 ± 6 | -5 ± 1% | 101 ± 7 | -16 ± 2 | 74 ± 6 | -39 ± 2 | 64 ± 7 | -47 ± 4 | 58 ± 6 | -52 ± 3 |  |  | 4.7 (≈ 12.2 µM) |  |  |
